Reference: PubChem BioAssay (NCI)
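Tested at 5 concentrations; 48 h exposure; 96-well plates; endpoints linearly interpolated, else capped at highest concentration. Abbreviation: GI50, concentration required for 50% inhibition of growth. Definition used: TGI = concentration required for complete inhibition of growth.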 Where a SMILES comes first, the peptide text is derived from it. [ ]: non-standard residue; d: D form. The star is where a group is joined. ξ: configuration not given here. ξD = NC(CC(=O)O)C(=O)O; Boc = CC(C)(C)OC(=O)*; Aib = CC(C)(N)C(=O)O; OtBu = CC(C)(C)O*

Tests used:
Experiment in all cases: DTP human tumour cell line panel, 48 h
KM12 colon = tested on: KM12 colon
UACC-62 melanoma = tested on: UACC-62 melanoma
OVCAR-3 ovarian = tested on: OVCAR-3 ovarian
MALME-3M melanoma = tested on: MALME-3M melanoma
SK-MEL-2 melanoma = tested on: SK-MEL-2 melanoma
SK-MEL-28 melanoma = tested on: SK-MEL-28 melanoma
ACHN renal = tested on: ACHN renal
TK-10 renal = tested on: TK-10 renal
A549 NSCLC = tested on: A549 NSCLC
786-0 renal = tested on: 786-0 renal
NCI-H226 lung = tested on: NCI-H226 lung
SK-OV-3 ovarian = tested on: SK-OV-3 ovarian
SF-539 CNS = tested on: SF-539 CNS
U251 CNS = tested on: U251 CNS
LOX IMVI melanoma = tested on: LOX IMVI melanoma
NCI/ADR-RES ovarian = tested on: NCI/ADR-RES ovarian
NCI-H460 lung = tested on: NCI-H460 lung
RPMI-8226 leukemia = tested on: RPMI-8226 leukemia
MOLT-4 leukemia = tested on: MOLT-4 leukemia
MDA-MB-435 = tested on: MDA-MB-435
DU-145 prostate = tested on: DU-145 prostate
UO-31 renal = tested on: UO-31 renal
NCI-H522 lung = tested on: NCI-H522 lung
K-562 leukemia = tested on: K-562 leukemia
OVCAR-4 ovarian = tested on: OVCAR-4 ovarian
MDA-MB-231 breast = tested on: MDA-MB-231 breast
SW-620 colon = tested on: SW-620 colon
SF-268 CNS = tested on: SF-268 CNS
HCT-15 colon = tested on: HCT-15 colon
HOP-92 NSCLC = tested on: HOP-92 NSCLC
OVCAR-8 ovarian = tested on: OVCAR-8 ovarian
HS 578T breast = tested on: HS 578T breast
SF-295 CNS = tested on: SF-295 CNS
BT-549 breast = tested on: BT-549 breast
IGROV1 ovarian = tested on: IGROV1 ovarian
T-47D breast = tested on: T-47D breast
SK-MEL-5 melanoma = tested on: SK-MEL-5 melanoma
CCRF-CEM leukemia = tested on: CCRF-CEM leukemia
OVCAR-5 ovarian = tested on: OVCAR-5 ovarian
A498 renal = tested on: A498 renal
HT29 colon = tested on: HT29 colon
MCF7 breast = tested on: MCF7 breast
NCI-H23 lung = tested on: NCI-H23 lung
HCT-116 colon = tested on: HCT-116 colon
CAKI-1 renal = tested on: CAKI-1 renal
EKVX NSCLC = tested on: EKVX NSCLC
RXF 393 renal = tested on: RXF 393 renal
COLO 205 colon = tested on: COLO 205 colon
UACC-257 melanoma = tested on: UACC-257 melanoma
HOP-62 NSCLC = tested on: HOP-62 NSCLC
SNB-19 CNS = tested on: SNB-19 CNS
SNB-75 CNS = tested on: SNB-75 CNS
PC-3 prostate = tested on: PC-3 prostate
M14 melanoma = tested on: M14 melanoma
HL-60(TB) leukemia = tested on: HL-60(TB) leukemia
HCC-2998 colon = tested on: HCC-2998 colon
SN12C renal = tested on: SN12C renal

Structure (SMILES): COC(=O)C(C)(C)NC(=O)C(C)(C)NC(=O)C(CC(=O)OC(C)(C)C)NC(=O)OC(C)(C)C (centres undefined) (Boc-[ξD](OtBu)-[Aib]-[Aib]-OMe)
- TGI (KM12 colon): > 100 µM
- TGI (UACC-62 melanoma): > 100 µM
- TGI (OVCAR-3 ovarian): > 100 µM
- TGI (MALME-3M melanoma): > 100 µM
- TGI (SK-MEL-2 melanoma): > 100 µM
- TGI (SK-MEL-28 melanoma): > 100 µM
- TGI (ACHN renal): > 100 µM
- TGI (TK-10 renal): > 100 µM
- TGI (A549 NSCLC): > 100 µM
- TGI (786-0 renal): > 100 µM
- TGI (NCI-H226 lung): > 100 µM
- TGI (SK-OV-3 ovarian): > 100 µM
- TGI (SF-539 CNS): > 100 µM
- TGI (U251 CNS): > 100 µM
- TGI (LOX IMVI melanoma): > 100 µM
- TGI (NCI/ADR-RES ovarian): > 100 µM
- TGI (NCI-H460 lung): > 100 µM
- TGI (RPMI-8226 leukemia): > 100 µM
- TGI (MOLT-4 leukemia): > 100 µM
- TGI (MDA-MB-435): > 100 µM
- TGI (DU-145 prostate): > 100 µM
- TGI (UO-31 renal): > 100 µM
- TGI (NCI-H522 lung): > 100 µM
- TGI (K-562 leukemia): > 100 µM
- TGI (OVCAR-4 ovarian): > 100 µM
- TGI (MDA-MB-231 breast): > 100 µM
- TGI (SW-620 colon): > 100 µM
- TGI (SF-268 CNS): > 100 µM
- TGI (HCT-15 colon): > 100 µM
- TGI (HOP-92 NSCLC): > 100 µM
- TGI (OVCAR-8 ovarian): > 100 µM
- TGI (HS 578T breast): > 100 µM
- TGI (SF-295 CNS): > 100 µM
- TGI (BT-549 breast): > 100 µM
- TGI (IGROV1 ovarian): > 100 µM
- TGI (T-47D breast): > 100 µM
- TGI (SK-MEL-5 melanoma): > 100 µM
- TGI (CCRF-CEM leukemia): > 100 µM
- TGI (OVCAR-5 ovarian): > 100 µM
- TGI (A498 renal): > 100 µM
- TGI (HT29 colon): > 100 µM
- TGI (MCF7 breast): > 100 µM
- TGI (NCI-H23 lung): > 100 µM
- TGI (HCT-116 colon): > 100 µM
- TGI (CAKI-1 renal): > 100 µM
- TGI (EKVX NSCLC): > 100 µM
- TGI (RXF 393 renal): > 100 µM
- TGI (COLO 205 colon): > 100 µM
- TGI (UACC-257 melanoma): > 100 µM
- TGI (HOP-62 NSCLC): > 100 µM
- TGI (SNB-19 CNS): > 100 µM
- TGI (SNB-75 CNS): > 100 µM
- TGI (PC-3 prostate): > 100 µM
- TGI (M14 melanoma): > 100 µM

Structure (SMILES): COc1ccc(-c2nc3c(-c4ccccc4)nc(-c4ccccc4)cn3c2-c2ccc(OC)cc2)cc1
- GI50 (KM12 colon): > 100 µM
- TGI (KM12 colon): > 100 µM
- GI50 (UACC-62 melanoma): 88.6 µM
- TGI (UACC-62 melanoma): > 100 µM
- GI50 (OVCAR-3 ovarian): > 100 µM
- TGI (OVCAR-3 ovarian): > 100 µM
- GI50 (MALME-3M melanoma): > 100 µM
- TGI (MALME-3M melanoma): > 100 µM
- GI50 (SK-MEL-28 melanoma): > 100 µM
- TGI (SK-MEL-28 melanoma): > 100 µM
- GI50 (HL-60(TB) leukemia): 3.28 µM
- TGI (HL-60(TB) leukemia): 52.6 µM
- GI50 (ACHN renal): > 100 µM
- TGI (ACHN renal): > 100 µM
- GI50 (TK-10 renal): > 100 µM
- TGI (TK-10 renal): > 100 µM
- GI50 (A549 NSCLC): > 100 µM
- TGI (A549 NSCLC): > 100 µM
- GI50 (786-0 renal): 49.5 µM
- TGI (786-0 renal): > 100 µM
- GI50 (SK-OV-3 ovarian): 82.5 µM
- TGI (SK-OV-3 ovarian): > 100 µM
- GI50 (SF-539 CNS): 88.2 µM
- TGI (SF-539 CNS): > 100 µM
- GI50 (U251 CNS): > 100 µM
- TGI (U251 CNS): > 100 µM
- GI50 (LOX IMVI melanoma): > 100 µM
- TGI (LOX IMVI melanoma): > 100 µM
- GI50 (NCI/ADR-RES ovarian): > 100 µM
- TGI (NCI/ADR-RES ovarian): > 100 µM
- GI50 (NCI-H460 lung): > 100 µM
- TGI (NCI-H460 lung): > 100 µM
- GI50 (RPMI-8226 leukemia): > 100 µM
- TGI (RPMI-8226 leukemia): > 100 µM
- GI50 (MDA-MB-435): > 100 µM
- TGI (MDA-MB-435): > 100 µM
- GI50 (DU-145 prostate): > 100 µM
- TGI (DU-145 prostate): > 100 µM
- GI50 (K-562 leukemia): > 100 µM
- TGI (K-562 leukemia): > 100 µM
- GI50 (OVCAR-4 ovarian): > 100 µM
- TGI (OVCAR-4 ovarian): > 100 µM
- GI50 (MDA-MB-231 breast): 68.5 µM
- TGI (MDA-MB-231 breast): > 100 µM
- GI50 (SW-620 colon): > 100 µM
- TGI (SW-620 colon): > 100 µM
- GI50 (SF-268 CNS): > 100 µM
- TGI (SF-268 CNS): > 100 µM
- GI50 (HCT-15 colon): > 100 µM
- TGI (HCT-15 colon): > 100 µM
- GI50 (HOP-92 NSCLC): 54.6 µM
- TGI (HOP-92 NSCLC): > 100 µM
- GI50 (HCC-2998 colon): > 100 µM
- TGI (HCC-2998 colon): > 100 µM
- GI50 (OVCAR-8 ovarian): > 100 µM
- TGI (OVCAR-8 ovarian): > 100 µM
- GI50 (HS 578T breast): 30.6 µM
- TGI (HS 578T breast): > 100 µM
- GI50 (SF-295 CNS): > 100 µM
- TGI (SF-295 CNS): > 100 µM
- GI50 (BT-549 breast): > 100 µM
- TGI (BT-549 breast): > 100 µM
- GI50 (SN12C renal): > 100 µM
- TGI (SN12C renal): > 100 µM
- GI50 (T-47D breast): > 100 µM
- TGI (T-47D breast): > 100 µM
- GI50 (SK-MEL-5 melanoma): > 100 µM
- TGI (SK-MEL-5 melanoma): > 100 µM
- GI50 (OVCAR-5 ovarian): > 100 µM
- TGI (OVCAR-5 ovarian): > 100 µM
- GI50 (A498 renal): > 100 µM
- TGI (A498 renal): > 100 µM
- GI50 (HT29 colon): > 100 µM
- TGI (HT29 colon): > 100 µM
- GI50 (MCF7 breast): > 100 µM
- TGI (MCF7 breast): > 100 µM
- GI50 (NCI-H23 lung): > 100 µM
- TGI (NCI-H23 lung): > 100 µM
- GI50 (HCT-116 colon): > 100 µM
- TGI (HCT-116 colon): > 100 µM
- GI50 (CAKI-1 renal): > 100 µM
- TGI (CAKI-1 renal): > 100 µM
- GI50 (EKVX NSCLC): > 100 µM
- TGI (EKVX NSCLC): > 100 µM
- GI50 (RXF 393 renal): 62.7 µM
- TGI (RXF 393 renal): > 100 µM
- GI50 (COLO 205 colon): > 100 µM
- TGI (COLO 205 colon): > 100 µM
- GI50 (UACC-257 melanoma): > 100 µM
- TGI (UACC-257 melanoma): > 100 µM
- GI50 (HOP-62 NSCLC): 40.6 µM
- TGI (HOP-62 NSCLC): > 100 µM
- GI50 (SNB-19 CNS): > 100 µM
- TGI (SNB-19 CNS): > 100 µM
- GI50 (SNB-75 CNS): 26.8 µM
- TGI (SNB-75 CNS): > 100 µM
- GI50 (PC-3 prostate): > 100 µM
- TGI (PC-3 prostate): > 100 µM
- GI50 (M14 melanoma): > 100 µM
- TGI (M14 melanoma): > 100 µM
